Measurements as given in US6358885B1, “Substituted phenylheterocyclic herbicides” (Mississippi State University, priority 1992, dated 2002).

Key:
[1] = test system: soybean; test: Test B preemergence/postemergence greenhouse plant response rating 0 to 10; type: in vivo, Glycine max; conditions: 0 to 10 scale
Outline: (§1)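 Postemergence treatment of plants two to eighteen cm tall ran alongside preemergence treatment of planted seed, each using compound in a non-phytotoxic solvent.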

[2] = test system: soybean; test: Test C preemergence/postemergence greenhouse plant response rating 0 to 100; type: in vivo, Glycine max; conditions: POSTEMERGENCE; for Plant response rating, Soybean: 0 to 100 scale
Outline: (§2)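 Compounds in non-phytotoxic solvent went onto sandy loam before emergence (seeded one day earlier) or onto plants at the one-to-four leaf stage. Duck salad was treated via flood water (~2.5 cm, maintained) over silt loam.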

[3] = test system: cheatgrass; test: Test B preemergence/postemergence greenhouse plant response rating 0 to 10; type: in vivo, Bromus secalinus; conditions: 0 to 10 scale
Outline: as §1

[4] = test system: wild buckwheat; test: Test C preemergence/postemergence greenhouse plant response rating 0 to 100; type: in vivo, Polygonum convolvulus; conditions: POSTEMERGENCE; for Plant response rating, Wild buckwheat: 0 to 100 scale
Outline: as §2

[5] = test system: chickweed; test: as above; type: in vivo, Stellaria media; conditions: POSTEMERGENCE; for Plant response rating, Chickweed: 0 to 100 scale
Outline: as §2

[6] = test system: giant foxtail; test: Test B preemergence/postemergence greenhouse plant response rating 0 to 10; type: in vivo, Setaria faberii; conditions: 0 to 10 scale
Outline: as §1

[7] = test system: rape; test: as above; type: in vivo, Brassica napus; conditions: 0 to 10 scale
Outline: as §1

[8] = test system: lambsquarters; test: Test C preemergence/postemergence greenhouse plant response rating 0 to 100; type: in vivo, Chenopodium album; conditions: POSTEMERGENCE; for Plant response rating Lambsquarters: 0 to 100 scale
Outline: as §2

[9] = test system: crabgrass; test: Test B preemergence/postemergence greenhouse plant response rating 0 to 10; type: in vivo, Digitaria spp.; conditions: 0 to 10 scale
Outline: as §1

[10] = test system: barley; test: Test C preemergence/postemergence greenhouse plant response rating 0 to 100; type: in vivo, Hordeum vulgare; conditions: POSTEMERGENCE; for Plant response rating Barley Igri: 0 to 100 scale
Outline: as §2

[11] = test system: pigweed; test: as above; type: in vivo, Amaranthusretroflexus; conditions: POSTEMERGENCE; for Plant response rating Pigweed: 0 to 100 scale
Outline: as §2

[12] = test system: sugar beet; test: as above; type: in vivo, Beta vulgaris; conditions: POSTEMERGENCE; for Plant response rating, Sugar beet: 0 to 100 scale
Outline: as §2

[13] = test system: purple nutsedge; test: Test B preemergence/postemergence greenhouse plant response rating 0 to 10; type: in vivo, Cyperus rotundus; conditions: 0 to 10 scale
Outline: as §1

[14] = test system: blackgrass; test: as above; type: in vivo, Alopecurus myosuroides; conditions: 0 to 10 scale
Outline: as §1

[15] = test system: velvetleaf; test: as above; type: in vivo, Abutilon theophrasti; conditions: 0 to 10 scale
Outline: as §1

[16] = test system: ryegrass; test: Test C preemergence/postemergence greenhouse plant response rating 0 to 100; type: in vivo, Lolium multiflorum; conditions: POSTEMERGENCE; for Plant response rating Ryegrass: 0 to 100 scale
Outline: as §2

[17] = test system: lambsquarters; test: Test B preemergence/postemergence greenhouse plant response rating 0 to 10; type: in vivo, Chenopodium album; conditions: 0 to 10 scale
Outline: as §1

[18] = test system: barley; test: as above; type: in vivo, Hordeum vulgare; conditions: 0 to 10 scale
Outline: as §1

## CCC(C)Oc1cc(-c2nn3c(c2Cl)CCCC3)c(F)cc1Cl (stereo not drawn) [Compound 48]
[1]; POSTEMERGENCE, Rate 50 g/ha
  Plant response rating, Soybean: 7
[1]; PREEMERGENCE, Rate 50 g/ha
  Plant response rating, Soybean: 0
[1]; Rate 200 g/ha, POSTEMERGENCE
  Plant response rating, Soybean: 7
[1]; Rate 200 g/ha, PREEMERGENCE
  Plant response rating, Soybean: 0
[2]; 62 g/ha
  Plant response rating, Soybean: 40
[2]; 250 g/ha
  Plant response rating, Soybean: 50
[2]; Rate 4 g/ha
  Plant response rating (0 to 100), Soybean: 30
[2]; Rate 16 g/ha
  Plant response rating (0 to 100), Soybean: 30
[3]; POSTEMERGENCE, Rate 50 g/ha
  Plant response rating, Cheatgrass: 6
[3]; POSTEMERGENCE, Rate 200 g/ha
  Plant response rating, Cheatgrass: 7
[3]; PREEMERGENCE, Rate 50 g/ha
  Plant response rating, Cheatgrass: 0
[3]; Rate 200 g/ha, PREEMERGENCE
  Plant response rating, Cheatgrass: 2
[4]; 62 g/ha
  Plant response rating, Wild buckwheat: 100
[4]; 250 g/ha
  Plant response rating, Wild buckwheat: 100
[4]; Rate 4 g/ha
  Plant response rating (0 to 100), Wild buckwheat: 60
[4]; Rate 16 g/ha
  Plant response rating (0 to 100), Wild buckwheat: 85
[5]; 62 g/ha
  Plant response rating, Chickweed: 60
[5]; 250 g/ha
  Plant response rating, Chickweed: 80
[5]; Rate 4 g/ha
  Plant response rating (0 to 100), Chickweed: 10
[5]; Rate 16 g/ha
  Plant response rating (0 to 100), Chickweed: 30
[6]; POSTEMERGENCE, Rate 50 g/ha
  Plant response rating, Giant foxtail: 6
[6]; PREEMERGENCE, Rate 50 g/ha
  Plant response rating, Giant foxtail: 6
[6]; Rate 200 g/ha, POSTEMERGENCE
  Plant response rating, Giant foxtail: 9
[6]; Rate 200 g/ha, PREEMERGENCE
  Plant response rating, Giant foxtail: 9
[7]; POSTEMERGENCE, Rate 50 g/ha
  Plant response rating, Rape: 8
[7]; PREEMERGENCE, Rate 50 g/ha
  Plant response rating, Rape: 4
[7]; Rate 200 g/ha, POSTEMERGENCE
  Plant response rating, Rape: 6
[7]; Rate 200 g/ha, PREEMERGENCE
  Plant response rating, Rape: 9
[8]; 62 g/ha
  Plant response rating Lambsquarters: 100
[8]; 250 g/ha
  Plant response rating Lambsquarters: 100
[8]; Rate 4 g/ha
  Plant response rating (0 to 100), Lambsquarters: 60
[8]; Rate 16 g/ha
  Plant response rating (0 to 100), Lambsquarters: 60
[9]; POSTEMERGENCE, Rate 50 g/ha
  Plant response rating, Crabgrass: 8
[9]; POSTEMERGENCE, Rate 200 g/ha
  Plant response rating, Crabgrass: 9
[9]; PREEMERGENCE, Rate 50 g/ha
  Plant response rating, Crabgrass: 2
[9]; Rate 200 g/ha, PREEMERGENCE
  Plant response rating, Crabgrass: 9
[10]; 62 g/ha
  Plant response rating Barley Igri: 30
[10]; 250 g/ha
  Plant response rating Barley Igri: 40
[10]; Rate 4 g/ha
  Plant response rating (0 to 100), Barley Igri: 10
[10]; Rate 16 g/ha
  Plant response rating (0 to 100), Barley Igri: 20
[11]; 62 g/ha
  Plant response rating Pigweed: 100
[11]; 250 g/ha
  Plant response rating Pigweed: 100
[11]; Rate 4 g/ha
  Plant response rating (0 to 100), Pigweed: 80
[11]; Rate 16 g/ha
  Plant response rating (0 to 100), Pigweed: 90
[12]; 62 g/ha
  Plant response rating, Sugar beet: 100
[12]; 250 g/ha
  Plant response rating, Sugar beet: 100
[12]; Rate 4 g/ha
  Plant response rating (0 to 100), Sugar beet: 100
[12]; Rate 16 g/ha
  Plant response rating (0 to 100), Sugar beet: 100
[13]; POSTEMERGENCE, Rate 50 g/ha
  Plant response rating, Nutsedge: 4
[13]; PREEMERGENCE, Rate 50 g/ha
  Plant response rating, Nutsedge: 0
[13]; Rate 200 g/ha, POSTEMERGENCE
  Plant response rating, Nutsedge: 5
[13]; Rate 200 g/ha, PREEMERGENCE
  Plant response rating, Nutsedge: 0
[14]; POSTEMERGENCE, Rate 50 g/ha
  Plant response rating, Blackgrass: 6
[14]; POSTEMERGENCE, Rate 200 g/ha
  Plant response rating, Blackgrass: 6
[14]; PREEMERGENCE, Rate 50 g/ha
  Plant response rating, Blackgrass: 0
[14]; Rate 200 g/ha, PREEMERGENCE
  Plant response rating, Blackgrass: 5
[15]; POSTEMERGENCE, Rate 50 g/ha
  Plant response rating, Velvetleaf: 9
[15]; PREEMERGENCE, Rate 50 g/ha
  Plant response rating, Velvetleaf: 0
[15]; Rate 200 g/ha, POSTEMERGENCE
  Plant response rating, Velvetleaf: 10
[15]; Rate 200 g/ha, PREEMERGENCE
  Plant response rating, Velvetleaf: 4
[16]; 62 g/ha
  Plant response rating Ryegrass: 30
[16]; 250 g/ha
  Plant response rating Ryegrass: 50
[16]; Rate 4 g/ha
  Plant response rating (0 to 100), Ryegrass: 10
[16]; Rate 16 g/ha
  Plant response rating (0 to 100), Ryegrass: 20
[17]; POSTEMERGENCE, Rate 50 g/ha
  Plant response rating, Lambsquarter: 10
[17]; PREEMERGENCE, Rate 50 g/ha
  Plant response rating, Lambsquarter: 10
[17]; Rate 200 g/ha, POSTEMERGENCE
  Plant response rating, Lambsquarter: 10
[17]; Rate 200 g/ha, PREEMERGENCE
  Plant response rating, Lambsquarter: 10
[18]; POSTEMERGENCE, Rate 50 g/ha
  Plant response rating, Barley: 7
[18]; POSTEMERGENCE, Rate 200 g/ha
  Plant response rating, Barley: 5
[18]; PREEMERGENCE, Rate 50 g/ha
  Plant response rating, Barley: 0
[18]; Rate 200 g/ha, PREEMERGENCE
  Plant response rating, Barley: 0
